Assay results published in the NIST ThermoML archive (doi:10.1021/je900093h).
± gives the expanded uncertainty stated by the source.

Test: molar heat capacity at saturation pressure
Settings: Vacuum adiabatic calorimetry

CCCCCCCCCC(=O)OCC [ethyl decanoate]
Settings | molar heat capacity [J/K/mol]
204.7 K, Crystal | 251.8 ± 2
205.19 K, Crystal | 252 ± 2
205.24 K, Crystal | 252.1 ± 2
205.57 K, Crystal | 252.3 ± 2
206.25 K, Crystal | 253.2 ± 2.1
206.66 K, Crystal | 253.6 ± 2.1
207.14 K, Crystal | 254 ± 2.1
207.19 K, Crystal | 254 ± 2.1
207.62 K, Crystal | 254.3 ± 2.1
208.2 K, Crystal | 255.2 ± 2.1
208.63 K, Crystal | 255.4 ± 2.1
209.09 K, Crystal | 255.7 ± 2.1
209.14 K, Crystal | 255.7 ± 2.1
209.67 K, Crystal | 256.4 ± 2.1
210.15 K, Crystal | 257 ± 2.1
210.59 K, Crystal | 257.3 ± 2.1
211.04 K, Crystal | 257.6 ± 2.1
211.09 K, Crystal | 257.8 ± 2.1
211.71 K, Crystal | 258.4 ± 2.1
212.1 K, Crystal | 259 ± 2.1
212.56 K, Crystal | 259.1 ± 2.1
212.98 K, Crystal | 259.7 ± 2.1
213.04 K, Crystal | 259.7 ± 2.1
213.75 K, Crystal | 260.3 ± 2.1
214.05 K, Crystal | 261 ± 2.1
214.52 K, Crystal | 261.2 ± 2.1
214.93 K, Crystal | 261.7 ± 2.1
214.99 K, Crystal | 261.6 ± 2.1
215.78 K, Crystal | 262.5 ± 2.1
215.99 K, Crystal | 263.2 ± 2.1
216.49 K, Crystal | 263.3 ± 2.1
216.87 K, Crystal | 263.9 ± 2.1
216.93 K, Crystal | 263.7 ± 2.1
217.81 K, Crystal | 264.8 ± 2.1
217.93 K, Crystal | 265.3 ± 2.1
218.46 K, Crystal | 265.4 ± 2.1
218.81 K, Crystal | 266.1 ± 2.2
218.87 K, Crystal | 265.9 ± 2.2
219.84 K, Crystal | 267.1 ± 2.2
219.87 K, Crystal | 267.5 ± 2.2
220.42 K, Crystal | 267.6 ± 2.2
220.75 K, Crystal | 268.4 ± 2.2
220.81 K, Crystal | 268.3 ± 2.2
221.82 K, Crystal | 269.7 ± 2.2
221.86 K, Crystal | 269.6 ± 2.2
222.39 K, Crystal | 270 ± 2.2
222.68 K, Crystal | 270.8 ± 2.2
222.75 K, Crystal | 270.5 ± 2.2
223.76 K, Crystal | 272.3 ± 2.2
223.88 K, Crystal | 272.1 ± 2.2
224.36 K, Crystal | 272.5 ± 2.2
224.61 K, Crystal | 273.3 ± 2.2
224.69 K, Crystal | 272.9 ± 2.2
225.69 K, Crystal | 274.9 ± 2.2
225.89 K, Crystal | 274.9 ± 2.2
226.33 K, Crystal | 275.1 ± 2.2
226.54 K, Crystal | 276.1 ± 2.2
226.62 K, Crystal | 275.6 ± 2.2
227.62 K, Crystal | 277.6 ± 2.2
227.9 K, Crystal | 277.8 ± 2.2
228.29 K, Crystal | 277.8 ± 2.2
228.46 K, Crystal | 278.4 ± 2.3
228.54 K, Crystal | 278.3 ± 2.3
229.55 K, Crystal | 280.1 ± 2.3
229.89 K, Crystal | 280.6 ± 2.3
230.26 K, Crystal | 280.8 ± 2.3
230.47 K, Crystal | 280.9 ± 2.3
232.23 K, Crystal | 284 ± 2.3
232.58 K, Crystal | 284.3 ± 2.3
234.19 K, Crystal | 287.3 ± 2.3
234.97 K, Crystal | 289 ± 2.3
236.16 K, Crystal | 291.1 ± 2.4
237.29 K, Crystal | 294.1 ± 2.4
238.11 K, Crystal | 296.8 ± 2.4
239.59 K, Crystal | 301 ± 2.4
240.07 K, Crystal | 303 ± 2.5
241.85 K, Crystal | 310.4 ± 2.5
244.07 K, Crystal | 325.4 ± 2.6
246.21 K, Crystal | 353.6 ± 2.9
254.4 K, Liquid | 386.7 ± 3.1
255.37 K, Liquid | 387 ± 3.1
256.65 K, Liquid | 387.2 ± 3.1
257.1 K, Liquid | 387.4 ± 3.1
257.94 K, Liquid | 387.5 ± 3.1
258.76 K, Liquid | 387.7 ± 3.1
259.18 K, Liquid | 387.9 ± 3.1
260.12 K, Liquid | 388.2 ± 3.1
260.59 K, Liquid | 388.3 ± 3.1
261.71 K, Liquid | 388.7 ± 3.1
262.29 K, Liquid | 388.9 ± 3.1
262.56 K, Liquid | 388.9 ± 3.1
264.24 K, Liquid | 389.3 ± 3.1
264.47 K, Liquid | 389.5 ± 3.1
264.54 K, Liquid | 389.4 ± 3.1
266.52 K, Liquid | 390 ± 3.1
266.65 K, Liquid | 390.1 ± 3.1
266.77 K, Liquid | 390.1 ± 3.1
268.5 K, Liquid | 390.8 ± 3.2
268.83 K, Liquid | 390.8 ± 3.2
